Experimental findings from PubChem BioAssay AID1259407 (Chemical Carcinogenesis Research Information System (CCRIS), 2018) are described below.

Active and inactive are the calls of the source. How the calls were made is not given here.

The subject of this series is CCRIS mutagenicity, Ames/micronucleus/aberration tests. The experiment in a line: CCRIS mutagenicity studies.
The mark [1] stands for this setting: Test System: AMES SALMONELLA TYPHIMURIUM, Strain/Indicator: TA98, Metabolic Activation: NONE, Method: PREINCUBATION
Where [2] appears, read: Test System: AMES SALMONELLA TYPHIMURIUM, Strain/Indicator: TA100, Metabolic Activation: NONE, Method: PREINCUBATION
Where [3] appears, read: Test System: AMES SALMONELLA TYPHIMURIUM, Strain/Indicator: TA1535, Metabolic Activation: NONE, Method: PREINCUBATION
[4] abbreviates: Test System: AMES SALMONELLA TYPHIMURIUM, Strain/Indicator: TA1538, Metabolic Activation: RAT, LIVER, S-9, AROCLOR 1254, Method: STANDARD PLATE.
Where [5] appears, read: Test System: AMES SALMONELLA TYPHIMURIUM, Strain/Indicator: TA98, Metabolic Activation: RAT, LIVER, S-9, AROCLOR 1254, Method: STANDARD PLATE.

`COc1cc(-c2ccc(N/N=C3/C(=O)c4c(N)cc(S(=O)(=O)O)cc4C=C3S(=O)(=O)O)c(OC)c2)ccc1N/N=C1/C(=O)c2c(N)cc(S(=O)(=O)O)cc2C=C1S(=O)(=O)O`: the mutagenic call reads like this: (End Point: IN VITRO CHROMOSOMAL ABERRATIONS, Test System: CHINESE HAMSTER OVARY CELLS, Metabolic Activation: NONE) “inactive; negative”; (End Point: IN VITRO CHROMOSOMAL ABERRATIONS, Test System: CHINESE HAMSTER OVARY CELLS, Metabolic Activation: RAT, LIVER, S-9, AROCLOR 1254) “inactive; negative”; (Test System: AMES SALMONELLA TYPHIMURIUM, Strain/Indicator: SV50, Metabolic Activation: HAMSTER, LIVER, S-9, Method: PREINCUBATION (PRIVAL METHOD)) “active; positive”; (Test System: AMES SALMONELLA TYPHIMURIUM, Strain/Indicator: SV50, Metabolic Activation: RAT, LIVER, S-9, AROCLOR 1254, Method: PREINCUBATION (PRIVAL METHOD)) “active; positive”; (Test System: AMES SALMONELLA TYPHIMURIUM, Strain/Indicator: TA98, Metabolic Activation: HAMSTER, LIVER, S-9, AROCLOR 1254 (10%), Method: PREINCUBATION) “inactive; negative”; (Test System: AMES SALMONELLA TYPHIMURIUM, Strain/Indicator: TA98, Metabolic Activation: HAMSTER, LIVER, S-9, Method: PREINCUBATION (PRIVAL METHOD)) “active; positive”. The mutagenic call is, setting by setting: under setting [1], “inactive; negative”; (Test System: AMES SALMONELLA TYPHIMURIUM, Strain/Indicator: TA98, Metabolic Activation: RAT, LIVER, S-9, AROCLOR 1254 (10%), Method: PREINCUBATION) “inactive; negative”; (Test System: AMES SALMONELLA TYPHIMURIUM, Strain/Indicator: TA98, Metabolic Activation: RAT, LIVER, S-9, AROCLOR 1254, Method: PREINCUBATION (PRIVAL METHOD)) “active; positive”; (Test System: AMES SALMONELLA TYPHIMURIUM, Strain/Indicator: TA100, Metabolic Activation: HAMSTER, LIVER, S-9, AROCLOR 1254 (10%), Method: PREINCUBATION) “inactive; negative”; under setting [2], “inactive; negative”; (Test System: AMES SALMONELLA TYPHIMURIUM, Strain/Indicator: TA100, Metabolic Activation: RAT, LIVER, S-9, AROCLOR 1254 (10%), Method: PREINCUBATION) “inactive; negative”. Also, the mutagenic call (Test System: AMES SALMONELLA TYPHIMURIUM, Strain/Indicator: TA1535, Metabolic Activation: HAMSTER, LIVER, S-9, AROCLOR 1254 (10%), Method: PREINCUBATION) was “inactive; negative”; the mutagenic call under setting [3] was “inactive; negative”; the mutagenic call (Test System: AMES SALMONELLA TYPHIMURIUM, Strain/Indicator: TA1535, Metabolic Activation: RAT, LIVER, S-9, AROCLOR 1254 (10%), Method: PREINCUBATION) is “inactive; negative”; the mutagenic call (Test System: AMES SALMONELLA TYPHIMURIUM, Strain/Indicator: TA1537, Metabolic Activation: HAMSTER, LIVER, S-9, AROCLOR 1254 (10%), Method: PREINCUBATION) was “inactive; negative”; the mutagenic call (Test System: AMES SALMONELLA TYPHIMURIUM, Strain/Indicator: TA1537, Metabolic Activation: NONE, Method: PREINCUBATION) was “inactive; negative”; the mutagenic call (Test System: AMES SALMONELLA TYPHIMURIUM, Strain/Indicator: TA1537, Metabolic Activation: RAT, LIVER, S-9, AROCLOR 1254 (10%), Method: PREINCUBATION) is “inactive; negative”. In addition, the mutagenic call is, setting by setting: (Test System: AMES SALMONELLA TYPHIMURIUM, Strain/Indicator: TA1538, Metabolic Activation: FLAVIN MONONUCLEOTIDE REDUCTION, HAMSTER, LIVER, S-9, Method: PREINCUBATION) “active; positive”; (Test System: AMES SALMONELLA TYPHIMURIUM, Strain/Indicator: TA1538, Metabolic Activation: RAT, CECAL BACTERIAL REDUCTION, S-9, AROCLOR 1254, Method: PREINCUBATION) “active; positive”; (Test System: AMES SALMONELLA TYPHIMURIUM, Strain/Indicator: TA1538, Metabolic Activation: RAT, LIVER, S-9, AROCLOR 1254, Method: PREINCUBATION) “active; positive”; under setting [4], “active; positive”.

Turning to `O[C@H]1[C@@H]2O[C@@H]2c2c(ccc3ccc4ccccc4c23)[C@@H]1O`, the mutagenic call was “active; positive” (Test System: E. COLI, Strain/Indicator: CL101P, Metabolic Activation: NONE, Method: PREINCUBATION); “active; positive” (Test System: E. COLI, Strain/Indicator: CL102P, Metabolic Activation: NONE, Method: PREINCUBATION); “active; positive” (Test System: E. COLI, Strain/Indicator: CL103P, Metabolic Activation: NONE, Method: PREINCUBATION); “active; positive” (Test System: E. COLI, Strain/Indicator: CL104P, Metabolic Activation: NONE, Method: PREINCUBATION); “active; positive” (Test System: E. COLI, Strain/Indicator: CL105P, Metabolic Activation: NONE, Method: PREINCUBATION); “active; positive” (Test System: E. COLI, Strain/Indicator: CL106P, Metabolic Activation: NONE, Method: PREINCUBATION).

As for `Cc1ccccc1C(N)=O`, the mutagenic call (Test System: AMES SALMONELLA TYPHIMURIUM, Strain/Indicator: TA97, Metabolic Activation: HAMSTER, LIVER, S-9, AROCLOR 1254 (10 OR 30%), Method: PREINCUBATION) is “inactive; negative”; the mutagenic call (Test System: AMES SALMONELLA TYPHIMURIUM, Strain/Indicator: TA97, Metabolic Activation: NONE, Method: PREINCUBATION) was “inactive; negative”; the mutagenic call (Test System: AMES SALMONELLA TYPHIMURIUM, Strain/Indicator: TA97, Metabolic Activation: RAT, LIVER, S-9, AROCLOR 1254 (10 OR 30%), Method: PREINCUBATION) was “inactive; negative”; the mutagenic call (Test System: AMES SALMONELLA TYPHIMURIUM, Strain/Indicator: TA98, Metabolic Activation: HAMSTER, LIVER, S-9, AROCLOR 1254 (10 OR 30%), Method: PREINCUBATION) is “inactive; negative”; the mutagenic call under setting [1] is “inactive; negative”; the mutagenic call (Test System: AMES SALMONELLA TYPHIMURIUM, Strain/Indicator: TA98, Metabolic Activation: RAT, LIVER, S-9, AROCLOR 1254 (10 OR 30%), Method: PREINCUBATION) was “inactive; negative”. The mutagenic call (Test System: AMES SALMONELLA TYPHIMURIUM, Strain/Indicator: TA100, Metabolic Activation: HAMSTER, LIVER, S-9, AROCLOR 1254 (10 OR 30%), Method: PREINCUBATION) was “inactive; negative”; the mutagenic call under setting [2] was “inactive; negative”; the mutagenic call (Test System: AMES SALMONELLA TYPHIMURIUM, Strain/Indicator: TA100, Metabolic Activation: RAT, LIVER, S-9, AROCLOR 1254 (10 OR 30%), Method: PREINCUBATION) was “inactive; negative”; the mutagenic call (Test System: AMES SALMONELLA TYPHIMURIUM, Strain/Indicator: TA1535, Metabolic Activation: HAMSTER, LIVER, S-9, AROCLOR 1254 (10 OR 30%), Method: PREINCUBATION) was “inactive; negative”; the mutagenic call under setting [3] is “inactive; negative”; the mutagenic call (Test System: AMES SALMONELLA TYPHIMURIUM, Strain/Indicator: TA1535, Metabolic Activation: RAT, LIVER, S-9, AROCLOR 1254 (10 OR 30%), Method: PREINCUBATION) was “inactive; negative”.

On to `OC1C=Cc2c(cc3ccc4cccc5ccc2c3c45)C1` (stereo unspecified), for which the mutagenic call under setting [5] was “active; positive”.

Consider `CCOP(=O)(OCC)O/C(=C/Br)c1ccc(Cl)cc1Cl`, for which the mutagenic call is “inactive; negative” (Test System: AMES SALMONELLA TYPHIMURIUM, Strain/Indicator: TA98, Metabolic Activation: NONE, Method: STANDARD PLATE); “inactive; negative” under setting [5]; “inactive; negative” (Test System: AMES SALMONELLA TYPHIMURIUM, Strain/Indicator: TA100, Metabolic Activation: NONE, Method: STANDARD PLATE); “inactive; negative” (Test System: AMES SALMONELLA TYPHIMURIUM, Strain/Indicator: TA100, Metabolic Activation: RAT, LIVER, S-9, AROCLOR 1254, Method: STANDARD PLATE); “inactive; negative” (Test System: AMES SALMONELLA TYPHIMURIUM, Strain/Indicator: TA1535, Metabolic Activation: NONE, Method: STANDARD PLATE); “inactive; negative” (Test System: AMES SALMONELLA TYPHIMURIUM, Strain/Indicator: TA1535, Metabolic Activation: RAT, LIVER, S-9, AROCLOR 1254, Method: STANDARD PLATE). Also, the mutagenic call by setting is: (Test System: AMES SALMONELLA TYPHIMURIUM, Strain/Indicator: TA1537, Metabolic Activation: NONE, Method: STANDARD PLATE) “inactive; negative”; (Test System: AMES SALMONELLA TYPHIMURIUM, Strain/Indicator: TA1537, Metabolic Activation: RAT, LIVER, S-9, AROCLOR 1254, Method: STANDARD PLATE) “inactive; negative”; (Test System: AMES SALMONELLA TYPHIMURIUM, Strain/Indicator: TA1538, Metabolic Activation: NONE, Method: STANDARD PLATE) “inactive; negative”; under setting [4], “inactive; negative”.
